Holding throughout (type): in vivo
Assay [1] deals with rTg4510 mice. Kind of assay: Morris Water Maze behavioral test, study of Example 1 and Example 12. Particulars: once daily by gavage 12.5 weeks, Example 1 at 7 and 20 mg/kg, Example 12 at 20 mg/kg, vs vehicle treated rTg4510, FIG. 1. The source says:
(§1) Double transgenic rTg4510 mice are an aggressive Tauopathy model expressing the full-length human Tau carrying the P301L mutation (Tau4R0N-P301L) under the control of the tetracycline-inducible CaMKII promoter (Ramsden et al., J. Neurosci., 2005⋅25(46):10637-10647). Wild-type animals and single transgenic mice expressing only the tetracycline-controlled transactivator (tTA) were used as genotype controls. The study comprised 6 treatment groups (n=20 mice/group) with the following group distribution (see Table 5). Compounds or vehicle control were administered once daily by gavage for 12.5 weeks starting at the age of 5.5 weeks. The Morris Water Maze (MWM) behavioral test was performed after 12.5 weeks of treatment over 5 consecutive days. During MWM testing daily dosing was continued. Behavioral testing (MWM) was performed only on female mice (around n=11 female/group). […]
The MWM was performed in a circular tank, measuring 48″ in diameter. […] Trials were video recorded and analyzed by a computer program (WaterMaze; Actimetrics, Wilmette, Ill.). […] Percent time spent in each quadrant (target, left and right adjacent, and opposite) were calculated for probe trials. […] Data were analyzed by 2-way ANOVA followed by post-hoc comparisons and shown statistics refers to differences compared to vehicle treated rTg4510 mice.

Assay [2] relates to rTg4510 mice. Kind of assay: Cortex size (cortical atrophy), study of Example 1 and Example 12. Particulars: once daily by gavage 12.5 weeks, Example 1 at 7 and 20 mg/kg, Example 12 at 20 mg/kg, vs vehicle treated rTg4510, FIG. 2A.
From the text: as §1, with “weeks.” for “weeks. The Morris Water Maze (MWM) behavioral test was performed after 12.5 weeks of treatment over 5 consecutive days. During MWM testing daily dosing was continued. Behavioral testing (MWM) was performed only on female mice (around n=11 female/group).”
(§2) After behavioral testing, mice were deeply anesthetized by standard injectable anesthesia and transcardially perfused with cold PBS. […] Sections from 7 mice per group, excluding wild-type animals, were collected from around 10 mediolateral levels starting 0.2 mm lateral from midline, mounted on slides, and used to quantify the cortex size. […] To reduce auto-fluorescence of the tissue, sections were incubated with a solution of 0.1% Sudan Black (Sigma) in 70% ethanol for 15 minutes at room temperature, then washed four times 5 minutes in PBS, and mounted using ProLong Gold Antifade reagent (Invitrogen). Staining was visualized on the Nikon Eclipse Ti microscope, imaged using Nikon DS-Fi2 camera, and quantified using the NIS-Element AR4.13.1 software. […]

Another assay addresses T1, misfolded Tau (MC1) (Homo sapiens, UniProt P10636, P618L).
T1 construct: expressing the full-length human Tau carrying the P301L mutation (Tau4R0N-P301L); from tissue; host or cells: brain (cortex) of double transgenic rTg4510 mice
The assay is described as follows: Misfolded Tau by MC1 histology, study of Example 1 and Example 12. Particulars: rTg4510 mice, once daily by gavage 12.5 weeks; Example 1 at 7 and 20 mg/kg, Example 12 at 20 mg/kg; vs vehicle treated rTg4510; FIG. 2B.
From the text: as §1, with “weeks.” for “weeks. The Morris Water Maze (MWM) behavioral test was performed after 12.5 weeks of treatment over 5 consecutive days. During MWM testing daily dosing was continued. Behavioral testing (MWM) was performed only on female mice (around n=11 female/group).”
as §2

A further assay deals with CD68 positive microglia. Kind of assay: CD68 histology (neuroinflammation), study of Example 1 and Example 12. As to conditions: rTg4510 mice, once daily by gavage 12.5 weeks; Example 1 at 7 and 20 mg/kg, Example 12 at 20 mg/kg; vs vehicle treated rTg4510; FIG. 3. An excerpt:
Double transgenic rTg4510 mice are an aggressive Tauopathy model expressing the full-length human Tau carrying the P301L mutation (Tau4R0N-P301L) under the control of the tetracycline-inducible CaMKII promoter (Ramsden et al., J. Neurosci., 2005⋅25(46):10637-10647). Wild-type animals and single transgenic mice expressing only the tetracycline-controlled transactivator (tTA) were used as genotype controls. The study comprised 6 treatment groups (n=20 mice/group) with the following group distribution (see Table 5). Compounds or vehicle control were administered once daily by gavage for 12.5 weeks starting at the age of 5.5 weeks. The Morris Water Maze (MWM) behavioral test was performed after 12.5 weeks of treatment over 5 consecutive days. During MWM testing daily dosing was continued. Behavioral testing (MWM) was performed only on female mice (around n=11 female/group). Measurements of cortical atrophy and histology for misfolded Tau (MC1) and CD68 were performed on 7 animals/group excluding wild-type animals.
A systematic random set of sections for five sagittal sections per animal (a total of 175 sections) was used for CD68 histological staining. […] Data were analyzed by 1-way ANOVA followed by post-hoc comparisons and shown statistics refers to differences compared to vehicle treated rTg4510 mice.

T1 sequence (P10636 1-383 isoform P10636-6 P243L): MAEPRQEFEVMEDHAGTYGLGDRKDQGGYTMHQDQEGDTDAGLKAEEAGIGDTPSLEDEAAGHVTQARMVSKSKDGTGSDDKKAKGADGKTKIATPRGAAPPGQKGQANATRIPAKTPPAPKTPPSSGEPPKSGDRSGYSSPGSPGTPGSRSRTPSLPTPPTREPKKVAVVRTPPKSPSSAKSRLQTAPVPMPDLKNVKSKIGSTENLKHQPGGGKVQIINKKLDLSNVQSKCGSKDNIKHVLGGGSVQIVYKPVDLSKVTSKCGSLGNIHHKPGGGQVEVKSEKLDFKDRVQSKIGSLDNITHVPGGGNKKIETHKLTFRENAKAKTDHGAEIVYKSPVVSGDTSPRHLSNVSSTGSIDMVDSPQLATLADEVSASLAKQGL

For the compound `CC(C)N1CCc2c(c3ccc(Nc4ccc5nc(N6CCOCC6)sc5c4)nc3n2C)C1` [Example 1], the “percentage of time spent in the target quadrant (MWM probe trial)” value with rTg4510 mice [1] is listed as “dose-dependent increase”. Moreover, the cortex size result in the assay on rTg4510 mice [2] is listed as “dose-dependent increase”. In addition, the “misfolded Tau (MC1 histology)” value on misfolded Tau (MC1) is reported as “dose-dependent decrease”. Besides, in the assay on CD68 positive microglia, the CD68 positive microglia result is given as “decrease”.
For `CN(C)[C@@H]1CCc2c(c3ccc(Nc4ccc5nc(N6CCOCC6)sc5c4)nc3n2C)C1` [Example 12], the “percentage of time spent in the target quadrant (MWM probe trial)” value with rTg4510 mice [1] is reported as “significant increase”. In the assay on rTg4510 mice [2], the cortex size entry was “significant increase”. In addition, the “misfolded Tau (MC1 histology)” value on misfolded Tau (MC1) is given as “significant decrease”. Besides, the CD68 positive microglia entry in the assay on CD68 positive microglia is “significant decrease”.

Values taken from US12202840B2, “Compounds for the treatment or alleviation of disorders associated with Tau aggregates” (AC Immune SA, priority 2018, dated 2025).
